From patent US9708259B2 (Hoffmann-La Roche Inc., priority 2013, dated 2017) come the findings set out here.

One test concerns the target T1, human M1 (Homo sapiens, UniProt P11229).
T1 construct: expressed in transfected cells; host or cells: CHO cells
T1 sequence (P11229 1-460): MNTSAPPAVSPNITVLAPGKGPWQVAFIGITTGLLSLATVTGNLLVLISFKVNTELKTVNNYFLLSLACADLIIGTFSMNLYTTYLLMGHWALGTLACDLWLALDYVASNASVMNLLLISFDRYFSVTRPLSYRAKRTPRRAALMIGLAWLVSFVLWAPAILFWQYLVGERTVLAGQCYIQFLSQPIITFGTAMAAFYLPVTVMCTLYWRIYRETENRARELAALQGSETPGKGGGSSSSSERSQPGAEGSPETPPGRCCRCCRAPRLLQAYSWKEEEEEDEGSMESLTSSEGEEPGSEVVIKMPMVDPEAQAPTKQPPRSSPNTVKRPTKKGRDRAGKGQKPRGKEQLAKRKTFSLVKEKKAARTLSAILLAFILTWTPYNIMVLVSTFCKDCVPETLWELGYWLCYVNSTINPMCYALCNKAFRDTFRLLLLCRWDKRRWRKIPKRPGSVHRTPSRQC
Briefly: M1 PAM assay (FLIPR intracellular calcium), human M1. The format is cell-based. In a few lines:
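CHO cells expressing M1, Fluo-4AM-loaded, in HEPES/probenecid HBSS pH 7.4, 1% DMSO final. Compounds pre-incubated 2 min for agonist activity versus 30 nM acetylcholine control. For PAM activity, acetylcholine EC20 added after the 2 min pre-incubation, then 2 min more before FLIPR intracellular Ca2+ read.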

The target of the next test is T2, ratM1 (Rattus norvegicus, UniProt P08482).
T2 construct: expressed in transfected cells; host or cells: CHO cells (stated generally for the assay, not specifically for rat M1)
T2 sequence (P08482 1-460): T1 sequence (P11229 1-460) with A5V, T254S, P309S, R320K, A337G, I413V
Briefly: M1 PAM assay (FLIPR intracellular calcium), rat M1. Type of test: cell-based. On the technique in general: Calcium flux is commonly read through the fluorescence of an indicator in the cells.

Setting [1] is: CHO human M1 cells, FLIPR Ca2+, with EC20 of acetylcholine, first value of the cell, read-out: hM1 EC50.
The mark [2] stands for this setting: rat M1, FLIPR Ca2+, second value of the cell, read-out: ratM1 EC50.

Numbering of substitutions follows the chain as printed. Like-named read-outs stand apart in the source and are kept apart here.

One may read the EC50 as the concentration at which the effect is half-maximal. As to `COc1ccc(F)c2c(C(=O)N[C@H]3CCCC[C@@H]3O)cn(Cc3ccc(-c4cnn(C)c4)cc3F)c12` [Example 149, 4-fluoro-1-(2-fluoro-4-(1-methyl-1H-pyrazol-4-yl)benzyl)-N-((1S,2S)-2-hydroxycyclohexyl)-7-methoxy-1H-indole-3-carboxamide], the EC50 at human M1 (setting [1]) came out at 438 nM; on ratM1 (setting [2]), 348 nM.
Regarding `N#Cc1ccc(Cn2cc(C(=O)N[C@H]3CCOC[C@@H]3O)c3c(F)cccc32)cc1` (single isomer, unassigned) [Example 54, 1-(4-cyanobenzyl)-4-fluoro-N-((3R,4S) or (3S,4R)-3-hydroxytetrahydro-2H-pyran-4-yl)-1H-indole-3-carboxamide], the EC50 was 69.6 nM at human M1 and 122 nM on ratM1.
Turning to `Cn1cc(-c2ccc(Cn3cc(C(=O)N[C@H]4CCCC(F)(F)[C@@H]4O)c4c(F)cccc43)cc2)cn1` [Example 101, N-((1S,2R)-3,3-difluoro-2-hydroxycyclohexyl)-4-fluoro-1-(4-(1-methyl-1H-pyrazol-4-yl)benzyl)-1H-indole-3-carboxamide], the EC50 was 14 nM at human M1 (setting [1]) and 42 nM on ratM1 (setting [2]).
Turning to `N#Cc1ccc(Cn2cc(C(=O)N[C@H]3CCCC[C@@H]3O)c3c(F)cccc32)cc1` [Example 32, 1-(4-cyanobenzyl)-4-fluoro-N-((1S,2S)-2-hydroxycyclohexyl)-1H-indole-3-carboxamide], the EC50 amounted to 105 nM on human M1 and 223 nM at ratM1.
Regarding `Cn1cc(-c2ccc(Cn3cc(C(=O)N[C@@H]4CCCC(F)(F)[C@H]4O)c4c(F)cccc43)cc2)cn1` [Example 100, N-((1R,2S)-3,3-difluoro-2-hydroxycyclohexyl)-4-fluoro-1-(4-(1-methyl-1H-pyrazol-4-yl)benzyl)-1H-indole-3-carboxamide], the results for the EC50 on human M1 (setting [1]) and at ratM1 (setting [2]) were 4 nM and 15 nM, respectively.
As to `Cn1cc(-c2ccc(Cn3cc(C(=O)NC[C@H]4CCCO4)c4c(F)cccc43)cc2)cn1` [Example 10, (R)-4-fluoro-1-(4-(1-methyl-1H-pyrazol-4-yl)benzyl)-N-((tetrahydrofuran-2-yl)methyl)-1H-indole-3-carboxamide], the results for the EC50 at human M1 (setting [1]) and on ratM1 (setting [2]) were 256 nM and 398 nM, respectively.
For `CNC(=O)c1ccc(Cn2cc(C(=O)NC3CCCCC3)c3c(F)cccc32)cc1` [Example 114, N-cyclohexyl-4-fluoro-1-[[4-(methylcarbamoyl)phenyl]methyl]indole-3-carboxamide] the same measures were 17 nM and 15 nM.
`O=C(NC1CC1)c1ccc(Cn2cc(C(=O)N[C@H]3CCCC[C@@H]3O)c3c(F)cccc32)cc1` [Example 146, 1-(4-(cyclopropylcarbamoyl)benzyl)-4-fluoro-N-((1S,2S)-2-hydroxycyclohexyl)-1H-indole-3-carboxamide]: the EC50 at human M1 (setting [1]) stood at 2 nM; on ratM1 (setting [2]), 5 nM.
For `Cn1cc(-c2ccc(Cn3cc(C(=O)N[C@H]4CCC[C@H]4O)c4c(F)cccc43)c(F)c2)cn1` [Example 24, 4-fluoro-1-(2-fluoro-4-(1-methyl-1H-pyrazol-4-yl)benzyl)-N-((1S,2R)-2-hydroxycyclopentyl)-1H-indole-3-carboxamide] the same measures were 46.3 nM and 84.5 nM.
For the compound `Cc1ccc(F)c2c(C(=O)NC3CCCOC3)cn(Cc3ccc(-c4cnn(C)c4)cc3)c12` (stereo not shown) [Example 48, 4-fluoro-7-methyl-1-(4-(1-methyl-1H-pyrazol-4-yl)benzyl)-N-(tetrahydro-2H-pyran-3-yl)-1H-indole-3-carboxamide], the EC50 at human M1 (setting [1]) was 251 nM; on ratM1 (setting [2]), 528 nM.
Regarding `Cn1ncc2cc(Cn3cc(C(=O)NC4CCOCC4)c4c(F)ccc(F)c43)ccc21` [Example 94, 4,7-difluoro-1-((1-methyl-1H-indazol-5-yl)methyl)-N-(tetrahydro-2H-pyran-4-yl)-1H-indole-3-carboxamide], the EC50 at human M1 stood at 66 nM; on ratM1, 141 nM.
For the compound `NC(=O)c1ccc(Cn2cc(C(=O)N[C@H]3CCCC[C@@H]3O)c3c(F)cccc32)cc1` [Example 77, 1-(4-carbamoylbenzyl)-4-fluoro-N-((1S,2S)-2-hydroxycyclohexyl)-1H-indole-3-carboxamide], the values for the EC50 at human M1 (setting [1]) and at ratM1 (setting [2]) were 2.21 nM and 2.47 nM, respectively.
In the same order, the values of `O=C(N[C@H]1CCCC[C@@H]1O)c1cn(Cc2ccc(N3CCCC3)nc2)c2cccc(F)c12` [Example 162, 4-fluoro-N-((1S,2S)-2-hydroxycyclohexyl)-1-((6-(pyrrolidin-1-yl)pyridin-3-yl)methyl)-1H-indole-3-carboxamide] are 214 nM and 751 nM.
`Cn1ncc2cc(Cn3cc(C(=O)N[C@H]4CCCC[C@@H]4O)c4c(F)cccc43)ccc21` [Example 37, 4-fluoro-N-((1S,2S)-2-hydroxycyclohexyl)-1-((1-methyl-1H-indazol-5-yl)methyl)-1H-indole-3-carboxamide]: the results for the EC50 on human M1 and on ratM1 were 43.8 nM and 39.5 nM, respectively.
Consider `CNC(=O)c1ccc(Cn2cc(C(=O)N[C@H]3CCCC[C@@H]3O)c3c(F)cccc32)cc1F` [Example 88, 4-fluoro-1-(3-fluoro-4-(methylcarbamoyl)benzyl)-N-((1S,2S)-2-hydroxycyclohexyl)-1H-indole-3-carboxamide], for which the EC50 at human M1 (setting [1]) turned out to be 14.3 nM; on ratM1 (setting [2]), 15.8 nM.
In the case of `Cn1cc(-c2ccc(Cn3cc(C(=O)NC4CCOCC4)c4c(F)cccc43)cc2)cn1` [Example 65, Fluoro-1-(4-(1-methyl-1H-pyrazol-4-yl)benzyl)-N-(tetrahydro-2H-pyran-4-yl)-1H-indole-3-carboxamide], the EC50 was 32.4 nM at human M1 (setting [1]) and 59.9 nM on ratM1 (setting [2]).
For the compound `COc1ccc(F)c2c(C(=O)N[C@H]3CCOC[C@@H]3O)cn(Cc3ccc(-c4cnn(C)c4)cc3F)c12` [Example 153, 4-fluoro-1-(2-fluoro-4-(1-methyl-1H-pyrazol-4-yl)benzyl)-N-((3R,4S)-3-hydroxytetrahydro-2H-pyran-4-yl)-7-methoxy-1H-indole-3-carboxamide], the EC50 at human M1 (setting [1]) and on ratM1 (setting [2]) was 56 nM throughout.
Consider `Cn1cc(-c2ccc(Cn3cc(C(=O)N[C@H]4CCOC[C@@H]4O)c4c(F)c(F)c(F)c(F)c43)cc2)cn1` (single isomer, unassigned) [Example 63, 4,5,6,7-Tetrafluoro-N-((3R,4S) or (3S,4R)-3-hydroxytetrahydro-2H-pyran-4-yl)-1-(4-(1-methyl-1H-pyrazol-4-yl)benzyl)-1H-indole-3-carboxamide], for which the figures for the EC50 at human M1 (setting [1]) and at ratM1 (setting [2]) were 19.6 nM and 54.2 nM, respectively.
For `O=C(N[C@H]1CCCC[C@@H]1O)c1cn(Cc2ccc(-n3ccnc3)nc2)c2cccc(F)c12` [Example 142, 1-((6-(1H-imidazol-1-yl)pyridin-3-yl)methyl)-4-fluoro-N-((1S,2S)-2-hydroxycyclohexyl)-1H-indole-3-carboxamide], the EC50 was determined as 75 nM on human M1 (setting [1]) and 210 nM on ratM1 (setting [2]).
In the same order, the values of `Cn1cc(-c2ccc(Cn3cc(C(=O)NC4CCCCC4)c4c(F)cccc43)c(F)c2)cn1` [Example 20, N-cyclohexyl-4-fluoro-1-(2-fluoro-4-(1-methyl-1H-pyrazol-4-yl)benzyl)-1H-indole-3-carboxamide] are 204 nM and 425 nM.
Consider `CNC(=O)c1ccc(Cn2cc(C(=O)N[C@H]3CCCC[C@@H]3O)c3c(F)cccc32)c(F)c1` [Example 86, 4-fluoro-1-(2-fluoro-4-(methylcarbamoyl)benzyl)-N-((1S,2S)-2-hydroxycyclohexyl)-1H-indole-3-carboxamide], for which the EC50 at human M1 (setting [1]) was determined as 6.91 nM; on ratM1 (setting [2]) it was 13 nM.
In the same order, the values of `O=C(N[C@H]1CCCC[C@@H]1O)c1cn(Cc2ccc(-c3cncnc3)cc2)c2cccc(F)c12` [Example 158, 4-Fluoro-N-((1S,2S)-2-hydroxycyclohexyl)-1-(4-(pyrimidin-5-yl)benzyl)-1H-indole-3-carboxamide] are 23 nM and 61 nM.
In the case of `O=C(N[C@H]1CCCC[C@@H]1O)c1cn(Cc2ccc(Cl)cc2)c2cccc(F)c12` [Example 38, 1-(4-chlorobenzyl)-4-fluoro-N-((1S,2S)-2-hydroxycyclohexyl)-1H-indole-3-carboxamide], the EC50 was 131 nM on human M1 and 382 nM at ratM1.
